Assay results: patent US8399206B2, “Methods for diagnosis, prognosis and methods of treatment” (Nodality, Inc., priority 2008, dated 2013)

Legend:
Format in all cases: cell-based, human
AML myeloblasts (BMMC) = experiment: SCNP of paired diagnosis and relapse AML BMMC and independent diagnostic set (Example 5); conditions: paired diagnosis samples of Patients 1 and 2
Text: All AML bone marrow mononuclear cells (BMMC) were derived from the bone marrow (BM) of AML patients treated at MD Anderson Cancer Center (MDACC) between September 1999 and September 2006. Clinical data were de-identified in compliance with Health Insurance Portability and Accountability Act regulations. Patient/sample inclusion criteria required a diagnosis of French-American-British (FAB) classification of M0 through M7 AML (excluding M3) AML, collection prior to therapy initiation and at least 50% viability upon sample thaw. For the identification of chemoresistant signaling profiles, two longitudinally paired BMMC samples at diagnosis (collection prior to the initiation of induction chemotherapy) and first relapse, were examined. An independent test set comprised of 47 BMMC samples collected at diagnosis from AML patients with a disease response of CR after high dose cytarabine based chemotherapy was used to assess the ability of the identified signaling profiles to predict disease relapse. Healthy, unstimulated BMMC (n=2) were purchased from a commercial source (All Cells) to serve as a control. All samples underwent fractionation over Ficoll-Hypaque prior to cryopreservation with 90% fetal bovine serum and 10% dimethyl sulfoxide and storage in liquid nitrogen.
The SCNP assay measured response to growth factors and cytokines involved in hematopoietic progenitor or myeloid biology (SCF, FLT3L, G-CSF, IL-27), drug transporter (ABCG2, MRP-1) and chemokine receptors (CXCR4) associated with adverse disease prognosis in AML, and the c-Kit growth factor receptor for SCF. The SCF and FLT3L-mediated PI3K/Akt and MAPK pathway is important for maintaining the hematopoietic stem cell pool; G-CSF-mediated Jak/STAT pathway activation is important for neutrophilic differentiation of hematopoietic progenitor cells; interleukin (IL)-27 mediated Jak/STAT pathway activation is important in regulating proliferation and differentiation of hematopoietic stem cells; CXCR4 expression is associated with disease relapse and decreased survival; and drug transporter expression levels (i.e. ABCG2 and MRP-1) are known to be associated with adverse prognosis in AML. All together, approximately 20 signaling nodes were evaluated in each sample.
SCNP assays were performed as described previously. Cryopreserved samples were thawed at 37° C. and washed once in warm PBS containing 10% FBS (HyClone, Waltham, Mass., USA) and 2 mM EDTA. […] The cells were re-suspended in RPMI containing 1% FBS, aliquoted to 100,000 cells/condition and rested for 1-2 hours at 37° C. […]

AML blasts = experiment: SCNP / phospho-flow modulated signaling assay, AML study No. 1 (PBMC at diagnosis, CR vs NR)
Text: The present illustrative example represents how to analyze cells in one embodiment of the present invention. There are several steps in the process, such as the stimulation step, the staining step and the flow cytometry step. The stimulation step of the phospho-flow procedure can start with vials of frozen cells and end with cells fixed and permeabilized in methanol. Then the cells can be stained with an antibody directed to a particular protein of interest and then analyzed using a flow cytometer.
Frozen cells are thawed in a 37° C. water bath and gently resuspended in the vial and transferred to the 15 mL conical tube. The 15 mL tube is centrifuged at 930 RPM (200×g) for 8 minutes at room temperature. The supernatant is aspirated and the pellet is gently resuspended in 1 mL media A. The cell suspension is filtered through a 70 um cell strainer into a new 15 mL tube. The cell strainer is rinsed with 1 mL media A and another 12 ml of media A into the 15 mL tube. The cells are mixed into an even suspension. A 20 μL aliquot is immediately removed into a 96-well plate containing 180 μL PBS+4% FBS+CD45 Alexa 700+PI to determine cell count and viability post spin. After the determination, the 15 mL tubes are centrifuged at 930 RPM (200×g) for 8 minutes at room temperature. The supernatant is aspirated and the cell pellet is gently resuspended in 4 mL PBS+4 μL Amine Aqua and incubated for 15 min in a 37° C. incubator. 10 mL RPMI+1% FBS is added to the cell suspension and the tube is inverted to mix the cells. The 15 mL tubes are centrifuged at 930 RPM (200×g) for 8 minutes at room temperature. The cells are resuspended in Media A at the desired cell concentration (1.25×10^6/mL). For samples with low numbers of cells (<18.5×10^6), the cells are resuspended in up to 15 mL media. For samples with high numbers of cells (>18.5×10^6), the volume is raised to 10 mL with media A and the desired volume is transferred to a new 15 mL tube, and the cell concentration is adjusted to 1.25×10^6 cells/ml. 1.6 mL of the above cell suspension (concentration at 1.25×10^6 cells/ml) is transferred into wells of a multi-well plate. From this plate, 80 ul is dispensed into each well of a subsequent plate. The plates are covered with a lid (Nunc) and placed in a 37° C. incubator for 2 hours to rest.
A concentration for each stimulant that is five folds more (5×) than the final concentration is prepared using Media A as diluent. 5× stimuli are arrayed into wells of a standard 96 well v-bottom plate that correspond to the wells on the plate with cells to be stimulated.
Adding the stimulant: The cell plate(s) are taken out of the incubator and placed in a 37° C. water bath next to the pipette apparatus. The cell plate is taken from the water bath and gently swirled to resuspend any settled cells. With pipettor, the stimulant is dispensed into the cell plate and vortexed at “7” for 5 seconds. The deep well plate is put back into the water bath.
Adding Fixative: 200 μl of the fixative solution (final concentration at 1.6%) is dispensed into wells and then mixed on the titer plate shaker on high for 5 seconds. The plate is covered with foil sealer and incubated in a 37° C. water bath for 10 minutes. The plate is spun for 6 minutes at 2000 rpm at room temperature. The cells are aspirated using a 96 well plate aspirator (VP Scientific). The plate is vortexed to resuspend cell pellets in the residual volume. The pellet is ensured to be dispersed before the Methanol step (see cell permeabilization) or clumping will occur.
Cell Permeabilization: Permeability agent, for example methanol, is added slowly and while the plate is vortexing. To do this, the cell plate is placed on titer plate shaker and made sure it is secure. The plate is set to shake using the highest setting. A pipetter is used to add 0.6 mls of 100% methanol to the plate wells. The plate(s) are put on ice until this step has been completed for all plates.

[1] = tested on: pediatric AML leukemic blasts; experiment: SCNP assay on pediatric AML bone marrow samples, POG trial 9421 (Example 11); conditions: relapse vs complete continuous remission (CCR)
Protocol: SCNP assays were performed on 77 bone marrow samples from pediatric AML patients enrolled in POG trial 9421 of which 67 were evaluable/had sufficient data for analysis and were enriched for non-responders (NR). 80 combinations of modulators and intra-cellular proteins (signaling nodes) were investigated including nodes involved in the phosphoinositide 3-kinase (PI3K), Janus Kinases (JAK), signal transducers and activators of transcription (STAT) and the DNA damage response and apoptosis pathways. Basal and modulated protein levels in leukemic blasts were measured using several metrics (e.g., fold change, total level of phosphorylation, and a rank based method Uu measuring the proportion of cells that shift from baseline), and nodes were examined in univariate and multivariate analyses for their ability to discriminate between AML responsive (CR, n=46) and non-responsive (NR, n=21) to anthracycline/cytarabine-based induction therapy. Furthermore, nodes were examined for their ability to identify patients likely to be in complete continuous remission (CCR, n=23) or relapse (CR-Rel, n=23) within 4 years.

AML BMMC leukemic blasts = experiment: SCNP modulated signaling assay, AML study No. 2 (BMMC, CR vs NR, clinical sub-groups); conditions: Study No. 2, all patients
Protocol: Two independent sets of cryopreserved samples were analyzed sequentially. The first set consisted of 35 peripheral blood mononuclear cell (PBMC) samples derived from AML patients. The second set consisted of 134 cryopreserved bone marrow mononuclear cell (BMMC) samples derived from AML patients. These samples were the same samples used in the previous examples. Sample inclusion criteria required collection prior to initiation of induction chemotherapy, AML classification by the French-American-British (FAB) criteria as M0 through M7 (excluding M3) and availability of clinical annotations.
In the first study, induction chemotherapy consisted of at least one cycle of standard cytarabine-based induction therapy (i.e. daunorubicin 60 mg/m^2×3 days, cytarabine 100-200 mg/m^2 continuous infusion×7 days); responses were measured after one cycle of induction therapy. In the second study, cytarabine (200 mg/m^2 to 3 g/m^2) was used in combination with an anthracycline (daunorubicin or idarubicin) or an additional anti-metabolite (e.g. fludarabine or troxacitabine), and sometimes, an experimental agent (Table 16). […] Standard clinical and laboratory criteria were used for defining complete response (CR) in both studies. […] Classified as “CRp,” these samples were included in the CR group for all primary analysis. The univariate analyses were also repeated with the CRp patients classified into the NR sample group for sensitivity analysis.
Cyropreserved samples were thawed at […], washed and centrifuged in PBS, 10% FBS and 2 mM EDTA. The cells were re-suspended, filtered to remove debris and washed in RPMI cell culture media, 1% FBS, then stained with Live/Dead Fixable Aqua Viability Dye to distinguish non-viable cells. The cells were then re-suspended in RPMI, 1% FBS, aliquoted to 100,000 cells/condition and rested for 1-2 hours at 37° C. prior to SCNP assays. Each condition included two to five phenotypic markers for cell population gating (eg, CD45, CD33), up to three intracellular stains or up to three additional surface markers or control antibodies for an eight-color flow cytometry assay.
Functional assays were performed as previously described. Cells were incubated with modulators (Table 18), at 37° C. for 3-15 minutes, fixed with 1.6% paraformaldehyde (final concentration) for 10 minutes at 37° C., pelleted and permeabilized with 100% ice-cold methanol and stored at −80° C.
Data was acquired using FACS DIVA software on both LSR II and CANTO II Flow Cytometers (BD). For all analyses, dead cells and debris were excluded by forward scatter (FSC), side scatter (SSC), and Amine Aqua Viability Dye measurement. Leukemic cells were identified as cells that lacked the characteristics of mature lymphocytes (CD45^++, CD33^−) and that fit the CD45 and CD33 versus right-angle light-scatter characteristics consistent with myeloid leukemia cells.
The median fluorescence intensity (MFI) was computed for each node from the fluorescence intensity levels for the cells in the myeloid population. The MFI values were then used to compute a variety of metrics by comparing them to baseline or background values, including the unmodulated condition, cellular autofluorescence and antibody isotype controls. The following metrics were computed: • 1. Basal MFI (“Basal”)=log2(MFIUnmodulated Stained)−log2(MFIGated Unstained (Autofluoresence)), designed to measure the basal levels of a certain protein under unmodulated conditions. • 2.

[2] = Study No. 1 sensitivity analysis, CR samples
[3] = Study No. 1 sensitivity analysis, NR samples incl. CRp

SCF: stem cell factor
responsive cells in diagnostic AML bone marrow samples (AML myeloblasts (BMMC)): ~1%
Mean Value of CRs, p-Akt Fold (AML blasts; [2]): 0.09
Mean Value of CRs, p-CREB Total Phospho (AML blasts; [2]): 1.32
Mean Value of CRs, p-Erk Fold (AML blasts; [2]): −0.06
Mean Value of CRs, p-Plcγ2 Total Phospho (AML blasts; [2]): 1.80
Mean Value of NRs, p-Akt Fold (AML blasts; [3]): 0.56
Mean Value of NRs, p-CREB Total Phospho (AML blasts; [3]): 1.92
Mean Value of NRs, p-Erk Fold (AML blasts; [3]): 0.11
Mean Value of NRs, p-Plcγ2 Total Phospho (AML blasts; [3]): 2.79

C/C=C(/C)C(=O)O[C@H]1C(C)=C2[C@H]([C@@H]1OC(=O)CCCCCCC)[C@@](C)(OC(C)=O)C[C@H](OC(=O)CCC)[C@@]1(O)[C@H]2OC(=O)[C@@]1(C)O [Thapsigargin, reference compound]
induction of p-Erk, p-CREB and p-S6 [1]: less in CR-Rd than in CCR samples
Mean Value of CRs, p-CREB Total Phospho (AML blasts; [2]): 1.79
Mean Value of CRs, p-S6 Fold (AML blasts; [2]): 0.03
Mean Value of CRs, p-S6 Total Phospho (AML blasts; [2]): 0.31
Mean Value of NRs, p-CREB Total Phospho (AML blasts; [3]): 2.77
Mean Value of NRs, p-S6 Fold (AML blasts; [3]): 0.31
Mean Value of NRs, p-S6 Total Phospho (AML blasts; [3]): 0.67
Mean Value of CRs, p-Erk Fold (AML BMMC leukemic blasts; CR samples): 1.22
Mean Value of NRs, p-Erk Fold (AML BMMC leukemic blasts; NR samples): 0.36

B1: G-CSF: granulocyte colony-stimulating factor (protein, UniProt P09919 31-207, looked up)
Granulocyte …: TPLGPASSLPQSFLLKCLEQVRKIQGDGAALQEKLVSECATYKLCHPEELVLLGHSLGIPWAPLSSCPSQALQLAGCLSQLHSGLFLYQGLLQALEGISPELGPTLDTLQLDVADFATTIWQQMEELGMAPALQPTQGAMPAFASAFQRRAGGVLVASHLQSFLEVSYRVLRHLAQP
responsive cells in diagnostic AML bone marrow samples (AML myeloblasts (BMMC)): ~1%
increase in p-Akt and p-S6 levels (AML blasts; Staurosporine Resistant category vs other apoptosis categories): greatest increase in p-Akt and p-S6 levels
Mean Value of CRs, p-Stat3 Fold (AML blasts; [2]): 0.60
Mean Value of CRs, p-Stat3 Total Phospho (AML blasts; [2]): 1.40
Mean Value of CRs, p-Stat5 Fold (AML blasts; [2]): 0.33
Mean Value of NRs, p-Stat3 Total Phospho (AML blasts; [3]): 2.74
Mean Value of NRs, p-Stat5 Fold (AML blasts; [3]): 1.15
Mean Value of NRs, p-Stat3 Fold (AML blasts; Study No. 1 sensitivity analysis, NR samples incl. CRp, negative = down regulation): 1.52
Jak/Stat response (G-CSF: p-Stat3, p-Stat5; GM-CSF: p-Stat5) (AML blasts; all samples of the Staurosporine Resistant apoptosis category): Robust Jak/Stat responses
